We go through two compounds from ChEMBL document CHEMBL4814014, “Identification of novel androgen receptor degrading agents to treat advanced prostate cancer” (Eur J Med Chem, 2021).

The subject of one experiment is CWR22R. The experiment can be described thus: Antiproliferative activity against AR-positive human 22RV1 cells assessed as reduction in cell viability incubated for 3 days by MTT assay. The settings on record: 22Rv1, 72 h.
The next experiment deals with DU-145. Kind of experiment: Antiproliferative activity against AR-negative human DU145 cells assessed as reduction in cell viability incubated for 3 days by MTT assay. The settings on record: DU-145, 72 h. (Tetrazolium assays rely on reduction of a dye to a coloured formazan, in cell work by metabolically active cells.)
In a further experiment the test system is LNCaP. Kind of experiment: Antiproliferative activity against AR-positive human LNCaP cells assessed as reduction in cell viability incubated for 3 days by MTT assay. Particulars: 72 h.

Broadly, the IC50 is the midpoint of a concentration-inhibition curve. Take `C=CC(=O)Nc1ccc(-c2cc(=O)c3c(O)cc(OC)c(OC(C)C)c3o2)cc1`: the IC50 is 5.8 µM in the experiment with CWR22R, 14.7 µM with DU-145 and 15.1 µM in the experiment on LNCaP.
For `CNC(=O)c1ccc(N2C(=S)N(c3ccc(C#N)c(C(F)(F)F)c3)C(=O)C2(C)C)cc1F` [ENZALUTAMIDE] the same measures were 42.3 µM, 45.3 µM and 17.6 µM.
